Test results reported in the NIST ThermoML archive (doi:10.1016/j.jct.2013.10.005).
Numbers after ± are expanded uncertainties.

Details: 298 K; 101.33 kPa; Crystal; X-ray diffraction

mass density: 1969 ± 10 kg/m3
SMILES: O.O.O.O.O=C([O-])[C@H](O)[C@@H](O)[C@H](O)[C@H](O)CO.O=C([O-])[C@H](O)[C@@H](O)[C@H](O)[C@H](O)CO.[Ba+2] [barium D-gluconate tetrahydrate]
